Results taken from paper PMC2922759 (European journal of pharmacology, 2009).
Several values for one entry are separate records, joined by “and”; a condition that tells them apart may be missing. Equal values may be shown once. Entries after “also recorded” stand apart in the source; their conditions may differ.

What was measured:
capsaicin-induced cough = conditions: for doses producing significant CNS effects (lethargy, ataxia): guinea pig, in vivo, po
[1] = system: conditioned place preference; experiment: Rat conditioned place preference; format: in vivo; conditions: for conditioned place preference (time spent in drug paired side): SCH 486757 10 mg/kg p.o., amphetamine 3 mg/kg, morphine 10 mg/kg, 4 pairings
[2] = system: MDS Pharma enzyme and receptor binding assays (benzodiazepine, bradykinin, dopamine D1/D2/D4, GABA, glutamate, glycine, serotonin, tachykinin); experiment: MDS Pharma Services counterscreen panel, remaining assays; conditions: tested at 10 μM; active = greater than 50% inhibition
Sodium channel, site 2 = experiment: MDS Pharma Services counterscreen binding; conditions: site 2 (rat), semi-quantitative
[3] = Pharmacokinetic profile in the rat; format: in vivo; conditions: 10 mg/kg p.o.
Dog NOP receptor = experiment: NOP receptor binding, brain; conditions: Mean±S.E.M.
Dopamine transporter = Dopamine transporter (Homo sapiens, UniProt Q01959); experiment: MDS Pharma Services counterscreen binding; conditions: semi-quantitative
[4] = biological target: human KOP opioid receptor (Homo sapiens, UniProt P41145); experiment: Opioid receptor binding, [3H]diprenorphine; conditions: human KOP in CHO cell membranes, Mean±S.E.M.
Rat NOP receptor = Rat NOP receptor (Rattus norvegicus, UniProt P35370); experiment: NOP receptor binding, clone; conditions: rat clone (CHO cells); Mean±S.E.M.
Dopamine D3 = Dopamine D3 (Homo sapiens, UniProt P35462); experiment: MDS Pharma Services counterscreen binding; conditions: semi-quantitative
Serotonin 5-HT6 = Serotonin 5-HT6 (Homo sapiens, UniProt P50406); experiment: MDS Pharma Services counterscreen binding; conditions: semi-quantitative
[5] = Pharmacokinetic profile in the guinea pig; format: in vivo
[6] = biological target: human DOP opioid receptor (Homo sapiens, UniProt P41143); experiment: Opioid receptor binding, [3H]diprenorphine; conditions: human DOP in CHO cell membranes, Mean±S.E.M.
Sigma (non-selective) = experiment: MDS Pharma Services counterscreen binding; conditions: Sigma (non-selective, guinea pig); semi-quantitative
[7] = General tolerability / overt behavioral effects; format: in vivo; conditions: guinea pig, rat, cat and dogs
[8] = system: mechanically-induced cough; experiment: Feline mechanically-induced cough; format: in vivo, cat; conditions: intra-vertebral artery, 0.001–0.3 mg/kg cumulative
[9] = Pharmacokinetic profile in the dog; format: in vivo
Cat NOP receptor = experiment: NOP receptor binding, brain; conditions: Mean±S.E.M.
[10] = Safety pharmacology rat studies; format: in vivo; conditions: oral doses up to 30 mg/kg, data not shown
Guinea pig NOP receptor = Guinea pig NOP receptor (Cavia porcellus, UniProt P47748); experiment: NOP receptor binding, brain; conditions: guinea pig brain (cortex); Mean±S.E.M.
Chain of Guinea pig NOP receptor (P47748 whole entry): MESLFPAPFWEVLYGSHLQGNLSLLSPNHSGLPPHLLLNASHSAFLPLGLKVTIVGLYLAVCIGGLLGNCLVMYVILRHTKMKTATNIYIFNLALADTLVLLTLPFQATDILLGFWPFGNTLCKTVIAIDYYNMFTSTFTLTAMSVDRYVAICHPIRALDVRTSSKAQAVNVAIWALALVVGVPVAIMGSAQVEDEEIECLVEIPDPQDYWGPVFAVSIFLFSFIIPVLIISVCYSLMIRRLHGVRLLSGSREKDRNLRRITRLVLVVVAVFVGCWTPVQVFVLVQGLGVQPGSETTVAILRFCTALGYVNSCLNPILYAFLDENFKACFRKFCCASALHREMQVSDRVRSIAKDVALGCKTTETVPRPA

Chain of human DOP opioid receptor (P41143 whole entry): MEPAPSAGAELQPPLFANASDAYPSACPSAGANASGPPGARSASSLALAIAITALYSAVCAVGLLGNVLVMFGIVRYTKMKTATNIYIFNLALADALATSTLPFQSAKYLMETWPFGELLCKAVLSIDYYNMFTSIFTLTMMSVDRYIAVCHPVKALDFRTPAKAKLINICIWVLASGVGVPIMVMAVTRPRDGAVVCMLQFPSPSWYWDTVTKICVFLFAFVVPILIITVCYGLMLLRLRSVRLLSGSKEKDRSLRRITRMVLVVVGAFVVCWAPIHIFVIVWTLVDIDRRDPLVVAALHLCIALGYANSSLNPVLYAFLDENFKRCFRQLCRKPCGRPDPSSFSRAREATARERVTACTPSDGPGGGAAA
Chain of Dopamine transporter (Q01959 whole entry): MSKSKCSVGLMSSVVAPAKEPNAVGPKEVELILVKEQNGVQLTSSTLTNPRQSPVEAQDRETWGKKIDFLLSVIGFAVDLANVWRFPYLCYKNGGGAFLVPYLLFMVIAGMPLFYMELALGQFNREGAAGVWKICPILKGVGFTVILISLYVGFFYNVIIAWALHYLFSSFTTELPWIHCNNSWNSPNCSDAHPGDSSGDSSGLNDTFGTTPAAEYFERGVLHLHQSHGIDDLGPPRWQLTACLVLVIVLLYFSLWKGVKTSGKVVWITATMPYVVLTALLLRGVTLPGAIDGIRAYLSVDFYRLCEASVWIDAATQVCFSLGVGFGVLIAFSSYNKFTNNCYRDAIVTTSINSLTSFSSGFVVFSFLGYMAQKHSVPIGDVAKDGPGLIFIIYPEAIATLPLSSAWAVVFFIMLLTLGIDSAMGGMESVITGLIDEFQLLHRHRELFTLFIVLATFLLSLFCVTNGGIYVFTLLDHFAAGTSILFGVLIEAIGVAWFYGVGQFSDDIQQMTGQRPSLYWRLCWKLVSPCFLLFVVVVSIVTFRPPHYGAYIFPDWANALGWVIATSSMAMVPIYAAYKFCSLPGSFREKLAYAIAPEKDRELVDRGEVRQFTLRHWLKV
Chain of Dopamine D3 (P35462 whole entry): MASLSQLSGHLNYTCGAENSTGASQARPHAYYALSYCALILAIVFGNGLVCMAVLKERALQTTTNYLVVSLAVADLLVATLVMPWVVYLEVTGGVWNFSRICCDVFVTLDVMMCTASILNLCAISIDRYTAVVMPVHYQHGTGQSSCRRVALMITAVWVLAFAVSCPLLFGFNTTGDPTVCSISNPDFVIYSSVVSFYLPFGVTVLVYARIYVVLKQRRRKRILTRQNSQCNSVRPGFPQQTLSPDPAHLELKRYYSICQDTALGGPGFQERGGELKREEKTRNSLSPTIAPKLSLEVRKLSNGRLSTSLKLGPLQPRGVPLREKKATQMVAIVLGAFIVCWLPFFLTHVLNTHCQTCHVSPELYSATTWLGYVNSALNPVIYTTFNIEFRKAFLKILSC
Chain of Serotonin 5-HT6 (P50406 whole entry): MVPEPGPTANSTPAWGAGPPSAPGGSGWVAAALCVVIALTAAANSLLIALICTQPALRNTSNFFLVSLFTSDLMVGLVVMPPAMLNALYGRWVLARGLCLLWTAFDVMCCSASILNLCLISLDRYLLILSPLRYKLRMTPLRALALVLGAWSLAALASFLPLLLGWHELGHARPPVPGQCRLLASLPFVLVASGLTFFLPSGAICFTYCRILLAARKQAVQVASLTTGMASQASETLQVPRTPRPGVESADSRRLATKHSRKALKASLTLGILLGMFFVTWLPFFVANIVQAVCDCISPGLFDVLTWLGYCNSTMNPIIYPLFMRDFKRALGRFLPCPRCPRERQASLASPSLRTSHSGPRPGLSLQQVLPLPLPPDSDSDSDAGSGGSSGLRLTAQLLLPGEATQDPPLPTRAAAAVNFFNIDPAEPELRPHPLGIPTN
Chain of human KOP opioid receptor (P41145 whole entry): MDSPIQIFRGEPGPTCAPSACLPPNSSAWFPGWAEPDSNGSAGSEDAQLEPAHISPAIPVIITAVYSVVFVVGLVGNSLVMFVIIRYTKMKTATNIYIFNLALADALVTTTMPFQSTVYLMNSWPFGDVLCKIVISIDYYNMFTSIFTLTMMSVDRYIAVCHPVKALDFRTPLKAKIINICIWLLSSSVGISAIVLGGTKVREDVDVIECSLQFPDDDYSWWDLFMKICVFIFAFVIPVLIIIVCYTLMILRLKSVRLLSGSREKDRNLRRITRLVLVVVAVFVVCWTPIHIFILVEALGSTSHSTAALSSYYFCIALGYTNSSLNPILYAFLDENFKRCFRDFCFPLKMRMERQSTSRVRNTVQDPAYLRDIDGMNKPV
Chain of Rat NOP receptor (P35370 whole entry): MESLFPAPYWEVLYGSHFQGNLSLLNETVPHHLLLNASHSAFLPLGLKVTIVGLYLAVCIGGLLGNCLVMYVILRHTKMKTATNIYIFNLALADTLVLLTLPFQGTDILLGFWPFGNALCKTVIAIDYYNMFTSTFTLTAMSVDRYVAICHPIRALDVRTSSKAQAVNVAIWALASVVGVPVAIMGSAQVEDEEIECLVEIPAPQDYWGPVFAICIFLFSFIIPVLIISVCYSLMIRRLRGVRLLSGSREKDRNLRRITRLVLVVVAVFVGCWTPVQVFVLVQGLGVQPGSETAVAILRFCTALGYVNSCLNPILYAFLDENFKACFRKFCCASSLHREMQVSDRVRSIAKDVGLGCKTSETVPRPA

COc1ccc2c3c1O[C@H]1[C@@H](O)C=C[C@H]4[C@@H](C2)N(C)CC[C@@]341 [codeine, reference compound]
doses producing significant CNS effects (lethargy, ataxia) (capsaicin-induced cough): higher than 60 mg/kg | antitussive efficacy compared between SCH 486757 and standards (capsaicin-induced cough; p.o., 4 h): comparable antitussive efficacies

CN1CC[C@]23c4c5ccc(O)c4O[C@H]2[C@@H](O)C=C[C@H]3[C@H]1C5 [morphine, reference compound]
conditioned place preference (time spent in drug paired side) [1]: induced a marked conditioned place preference; also recorded: increased the time spent on the drug paired side

COc1ccc2c(c1)[C@]13CCCC[C@@H]1[C@H](C2)N(C)CC3 [dextromethorphan, reference compound]
doses producing significant CNS effects (lethargy, ataxia) (capsaicin-induced cough): > 100 mg

O=C1CC[C@@]2(O)[C@H]3Cc4ccc(O)c5c4[C@@]2(CCN3CC2CC2)[C@H]1O5 [naltrexone, reference compound]
action on capsaicin-induced cough responses, given alone (capsaicin-induced cough; J113397 12 mg/kg i.p., naltrexone 10 mg/kg p.o.): Neither naltrexone nor J113397 given alone had any actions

OC1(c2ncccn2)CC2CCC(C1)N2C(c1ccccc1Cl)c1ccccc1Cl (centres unmarked) [SCH 486757, 8-[Bis(2-Chlorophenyl)Methyl]-3-(2-Pyrimidinyl)-8-Azabicyclo-[3.2.1.]Octan-3-Ol]
activity in remaining MDS Pharma enzyme and receptor binding assays [2]: did not show significant affinity | Ki (Sodium channel, site 2): 5580 nM | AUC [3]: 1.29 µM·h | Cmax [3]: 127 nM | Tmax [3]: 3.3 h | Ki (Dog NOP receptor): 5.3 ± 0.71 nM | Ki (Dopamine transporter): 8430 nM | Ki [4]: 590 ± 40 nM | Ki (Rat NOP receptor): 6.6 ± 0.15 nM | number of entries into the drug paired side ([1]; 10 mg/kg p.o.): did not alter | conditioned place preference (time spent in drug paired side) [1]: without effect; also recorded: did not produce any conditioned place preference; also recorded: no effect | Ki (Dopamine D3): 3660 nM | Ki (Serotonin 5-HT6): 2350 nM | AUC ([5]; 0.03 mg/kg p.o.): 0.027 µM·h | Tmax ([5]; 0.03 mg/kg p.o.): 3 h | plasma concentration during the 2- to 4-hour time period ([5]; 0.03 mg/kg p.o.): about 2 nM | Cmax ([5]; 0.03 mg/kg p.o., 0.03 mg/kg): 3.1 nM and 3 nM | AUC ([5]; 0.30 mg/kg p.o.): 0.242 µM·h | Cmax ([5]; 0.30 mg/kg p.o.): 31 nM | Tmax ([5]; 0.30 mg/kg p.o.): 3 h | Ki [6]: 14700 ± 2560 nM | Ki (Sigma (non-selective)): 7120 nM | tolerability, overt behavioral effects [7]: well tolerated | antitussive activity at 2 and 6 h (capsaicin-induced cough; 0.1 mg/kg, p.o., 2 and 6 h): Significant antitussive activity | inhibition of capsaicin-evoked coughing, chronic dosing (capsaicin-induced cough; 1 mg/kg p.o., 5-day BID regimen, 2 h post last dose): 40 ± 11% | inhibition of capsaicin-evoked coughing, acute dosing (capsaicin-induced cough; 1 mg/kg p.o., single dose, 2 h post treatment): 46 ±9% | inhibition of cough at 24 h (capsaicin-induced cough; 1 mg/kg, p.o., 24 h, data not shown): did not inhibited cough | tolerance to antitussive activity (capsaicin-induced cough; 5-day BID dosing regimen, 1 mg/kg p.o.): does not produce tolerance | antitussive effect in presence of naltrexone (capsaicin-induced cough; SCH 486757 3 mg/kg p.o., naltrexone 10 mg/kg p.o., 2 h): not by naltrexone | ED50 against capsaicin-induced cough (capsaicin-induced cough; p.o., 4 h post administration): 0.04 mg/kg | maximum efficacy, cough suppression (capsaicin-induced cough; p.o., 4 h post administration): 66 ± 6% | effect on inspiratory electromyogram amplitude [8]: did not significantly affect; also recorded: no significant effect | half-life (t1/2) ([9]; 3 mg/kg intravenous): 7.9 h | mean AUC ([9]; 3 mg/kg intravenous): 5.68 µM·h | AUC ([9]; 3 mg/kg p.o.): 1.84 µM·h | Cmax ([9]; 3 mg/kg p.o.): 540 nM | Tmax ([9]; 3 mg/kg p.o.): 0.8 h | percent bioavailability (F%) ([9]; 3 mg/kg p.o. vs intravenous): 32% | Ki (Cat NOP receptor): 6.7 ± 0.67 nM | effect on blood gases or respiratory function parameters [10]: did not affect | Ki (Guinea pig NOP receptor): 5.4 ± 0.32 nM

CC(N)Cc1ccccc1 (centres unmarked) [amphetamine, reference compound]
conditioned place preference (time spent in drug paired side) [1]: induced a marked conditioned place preference; also recorded: increased the time spent on the drug paired side
